Columns and labels:
[1] = test system: smallflower umbrella sedge; assay: Test C flooded paddy test; assay type: in vivo, Cyperus difformis; conditions: for Plant response rating, Sedge, Umbrella: 500 g ai/ha, visual rating after 12 to 14 days
barnyardgrass = assay: Test A pre-/postemergence herbicide test; assay type: in vivo, Echinochloa crus-galli
In short: (§1)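 Both application timings were run together: directed soil spray over freshly planted seeds in sandy loam, and runoff spray onto 2–10 cm seedlings. Evaluation after ~10 days in greenhouse used a 0–100 visual scale versus untreated controls.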

velvetleaf [2] = assay: Test B pre-/postemergence herbicide test; assay type: in vivo, Abutilon theophrasti; conditions: for Velvetleaf plant response rating: postemergence, visual rating
In short: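 Test chemicals in a non-phytotoxic solvent mixture with surfactant were applied preemergence to seeded species and postemergence to plants 2-18 cm tall (1- to 4-leaf stage); rice and barnyardgrass were also tested in a flooded paddy at the 2-leaf stage. Visual rating versus controls after 13-15 days in greenhouse, scale 0 (no effect) to 100 (complete control).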

kochia = assay: Test C pre-/postemergence herbicide test; assay type: in vivo, Kochia scoparia
In short: (§2)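 Emerged plants at the 1- to 4-leaf stage (2–18 cm), or freshly planted seeds, received test chemicals in a non-phytotoxic solvent mixture with surfactant. Response was visually scored against controls after 12 to 14 days in the greenhouse, on a 0 (no effect) to 100 (complete control) scale.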

morningglory = assay: Test C pre-/postemergence herbicide test; assay type: in vivo, Ipomoea coccinea; parameters: key to Plant response rating, Morningglory: 0 = no effect, 100 = complete control
In short: as §2

corn = assay: Test C pre-/postemergence herbicide test; assay type: in vivo, Zea mays
In short: as §2

velvetleaf [3] = assay: Test C pre-/postemergence herbicide test; assay type: in vivo, Abutilon theophrasti
In short: as §2

large crabgrass = assay: Test A pre-/postemergence herbicide test; assay type: in vivo, Digitaria sanguinalis
In short: as §1

Surinam grass = assay: Test C pre-/postemergence herbicide test; assay type: in vivo, Urochloa decumbens
In short: as §2

[4] = 62 g ai/ha, scale 0 to 100 (0 no effect, 100 complete control)
[5] = 250 g ai/ha, scale of 0 to 100, 0 is no effect, 100 is complete control
[6] = scale 0 to 100 (0 no effect, 100 complete control)
[7] = Postemergence, 500 g ai/ha, 0 to 100 scale, 0 no effect, 100 complete control
[8] = Postemergence, 2000 g ai/ha, 0 to 100 scale, 0 no effect, 100 complete control
[9] = Preemergence, 500 g ai/ha, visual rating, 0 to 100 scale (0 no effect, 100 complete control)
[10] = Preemergence, 2000 g ai/ha, visual rating, 0 to 100 scale (0 no effect, 100 complete control)
[11] = 500 g ai/ha, visual rating 0-100, 0 no effect, 100 complete control, preemergence
[12] = 125 g ai/ha, scale 0 (no effect) to 100 (complete control)
[13] = 125 g ai/ha, scale 0 (no effect) to 100 (complete control), visual, 12 to 14 days, preemergence
[14] = Postemergence, 500 g ai/ha, scale 0 to 100
[15] = Postemergence, 250 g ai/ha, scale 0 to 100, 0 no effect, 100 complete control
[16] = Preemergence, 500 g ai/ha, scale 0 to 100, 0 no effect, 100 complete control
[17] = postemergence, 125 g ai/ha, scale 0 to 100
[18] = postemergence, 62 g ai/ha, scale 0 to 100
[19] = preemergence, 500 g ai/ha, visual injury, 0 to 100 scale (0 no effect, 100 complete control)
[20] = 62 g ai/ha, preemergence, scale 0 to 100
[21] = 250 g ai/ha, scale 0-100, preemergence
[22] = 500 g ai/ha, scale 0 to 100 (0 no effect, 100 complete control), visual, 12 to 14 days, preemergence

Q: Which “Sedge, Umbrella plant response rating” value [1, 4] does the source give for CC(=NO)c1cccc(NC(=O)c2cc(C(C)(C)C)nn2CCF)c1 [Compound 115] here?
A: 80

Q: What about the “Sedge, Umbrella plant response rating” value ([1]; 125 g ai/ha, scale of 0 to 100, 0 is no effect, 100 is complete control) of the same compound?
A: 85

Q: And the “Sedge, Umbrella plant response rating” value [1, 5]?
A: 90

Q: And the “Plant response rating, Sedge, Umbrella” value [1, 6]?
A: 95

Q: And the “Barnyardgrass plant response rating” value (barnyardgrass; [7])?
A: 70

Q: What about the “Plant response rating, Barnyardgrass” value (barnyardgrass; [8]) of the same compound?
A: 80

Q: And the “Barnyardgrass plant response rating” value (barnyardgrass; [9])?
A: 70

Q: And the “Barnyardgrass plant response rating” value (barnyardgrass; [10])?
A: 85

Q: What about the “Plant response rating, Velvetleaf” value (velvetleaf [2]; [11]) of the same compound?
A: 100

Q: And the “Plant response rating, Velvetleaf” value (velvetleaf [2]; Postemergence, 500 g ai/ha, visual rating after 13 to 15 days, scale 0 (no effect) to 100 (complete control))?
A: 80

Q: What about the “Velvetleaf plant response rating” value (velvetleaf [2]; [12]) of the same compound?
A: 60

Q: What about the “Plant response rating, Velvetleaf” value (velvetleaf [2]; preemergence, 125 g ai/ha, 0 to 100 scale, 0 is no effect, 100 is complete control) of the same compound?
A: 80

Q: And the “Plant response rating (0 = no effect, 100 = complete control), Kochia” value (kochia; 62 g ai/ha, preemergence)?
A: 100

Q: What about the “Plant response rating, Kochia” value (kochia; [13]) of the same compound?
A: 100

Q: And the “Kochia plant response rating” value (kochia; [14])?
A: 90

Q: And the “Plant response rating, Kochia” value (kochia; [15])?
A: 90

Q: And the “Kochia plant response rating” value (kochia; [16])?
A: 100

Q: What about the “Plant response rating, Kochia” value (kochia; [17]) of the same compound?
A: 90

Q: What about the “Plant response rating, Kochia” value (kochia; [18]) of the same compound?
A: 80

Q: And the “Plant response rating, Morningglory” value (morningglory; [13])?
A: 30

Q: And the “Morningglory plant response rating” value (morningglory; [14])?
A: 100

Q: And the “Morningglory plant response rating” value (morningglory; [16])?
A: 80

Q: And the “Plant response rating, Morningglory” value (morningglory; [17])?
A: 80

Q: And the “Plant response rating, Morningglory” value (morningglory; [18])?
A: 50

Q: And the “Plant response rating (0 = no effect, 100 = complete control), Corn” value (corn; 62 g ai/ha, preemergence)?
A: 10

Q: What about the “Plant response rating, Corn” value (corn; [13]) of the same compound?
A: 10

Q: What about the “Plant response rating, Corn” value (corn; 250 g ai/ha, scale 0 to 100 (0 no effect, 100 complete control), visual, 12 to 14 days, preemergence) of the same compound?
A: 20

Q: What about the “Corn plant response rating” value (corn; [14]) of the same compound?
A: 40

Q: And the “Corn plant response rating” value (corn; [16])?
A: 30

Q: What about the “Plant response rating, Corn” value (corn; [17]) of the same compound?
A: 40

Q: And the “Plant response rating, Corn” value (corn; [18])?
A: 40

Q: And the “Plant response rating, Velvetleaf” value (velvetleaf [3]; [13])?
A: 100

Q: And the “Velvetleaf plant response rating” value (velvetleaf [3]; [14])?
A: 90

Q: And the “Plant response rating, Velvetleaf” value (velvetleaf [3]; [15])?
A: 90

Q: And the “Velvetleaf plant response rating” value (velvetleaf [3]; [16])?
A: 100

Q: And the “Plant response rating, Velvetleaf” value (velvetleaf [3]; [17])?
A: 90

Q: What about the “Plant response rating, Velvetleaf” value (velvetleaf [3]; [18]) of the same compound?
A: 60

Q: And the “Crabgrass, Large plant response rating” value (large crabgrass; [7])?
A: 75

Q: What about the “Plant response rating, Crabgrass, Large” value (large crabgrass; [8]) of the same compound?
A: 80

Q: What about the “Crabgrass, Large plant response rating” value (large crabgrass; [9]) of the same compound?
A: 100

Q: And the “Crabgrass, Large plant response rating” value (large crabgrass; [10])?
A: 100

Q: What about the “Plant response rating (0 = no effect, 100 = complete control), Surinam Grass” value (Surinam grass; 62 g ai/ha, preemergence) of the same compound?
A: 20

Q: What about the “Plant response rating, Surinam Grass” value (Surinam grass; [13]) of the same compound?
A: 40

Q: What about the “Surinam Grass plant response rating” value (Surinam grass; [14]) of the same compound?
A: 60

Q: What about the “Plant response rating, Surinam Grass” value (Surinam grass; [15]) of the same compound?
A: 60

Q: What about the “Surinam Grass plant response rating” value (Surinam grass; [16]) of the same compound?
A: 90

Q: And the “Plant response rating, Surinam Grass” value (Surinam grass; [17])?
A: 40

Q: And the “Plant response rating, Surinam Grass” value (Surinam grass; [18])?
A: 30

Q: What does the source list for CCNC(=O)c1cccc(NC(=O)c2sc(C(C)(C)C)nc2CC)c1 [Compound 210]?
A: Sedge, Umbrella plant response rating [1, 4]: 75; Sedge, Umbrella plant response rating ([1]; 125 g ai/ha, scale 0 to 100 (0 no effect, 100 complete control)): 80; Sedge, Umbrella plant response rating [1, 5]: 85; Plant response rating, Sedge, Umbrella [1, 6]: 90; Barnyardgrass plant response rating (barnyardgrass; [7]): 80; Plant response rating, Barnyardgrass (barnyardgrass; [8]): 80; Barnyardgrass plant response rating (barnyardgrass; [10]): 90; Barnyardgrass plant response rating (barnyardgrass; [19]): 85; Velvetleaf plant response rating (0 to 100 scale) (velvetleaf [2]; 125 g ai/ha, 0 = no effect, 100 = complete control, preemergence): 10; Plant response rating, Velvetleaf (velvetleaf [2]; [11]): 70; Velvetleaf plant response rating (velvetleaf [2]; [12]): 30; Velvetleaf plant response rating (velvetleaf [2]; 500 g ai/ha, scale 0 (no effect) to 100 (complete control)): 70; Plant response rating, Kochia (kochia; [20]): 0; Plant response rating, Kochia (kochia; [13]): 90; Plant response rating, Kochia (kochia; [21]): 90; Plant response rating, Kochia (kochia; [22]): 95; Plant response rating, Morningglory (morningglory; [20]): 0; Plant response rating, Morningglory (morningglory; [13]): 0; Plant response rating, Morningglory (morningglory; [21]): 5; Plant response rating, Morningglory (morningglory; [22]): 10; Plant response rating, Corn (corn; [20]): 0; Plant response rating, Corn (corn; [13]): 10; Plant response rating, Corn (corn; [21]): 20; Plant response rating, Corn (corn; [22]): 40; Plant response rating, Velvetleaf (velvetleaf [3]; [20]): 0; Plant response rating, Velvetleaf (velvetleaf [3]; [13]): 0; Plant response rating, Velvetleaf (velvetleaf [3]; [21]): 60; Plant response rating, Velvetleaf (velvetleaf [3]; [22]): 80; Crabgrass, Large plant response rating (large crabgrass; [7]): 40; Plant response rating, Crabgrass, Large (large crabgrass; [8]): 65; Crabgrass, Large plant response rating (large crabgrass; [10]): 100; Crabgrass, Large plant response rating (large crabgrass; [19]): 90; Plant response rating, Surinam Grass (Surinam grass; [20]): 0; Plant response rating, Surinam Grass (Surinam grass; [13]): 5; Plant response rating, Surinam Grass (Surinam grass; [21]): 10; Plant response rating, Surinam Grass (Surinam grass; [22]): 50
